Data as given in patent publication US11945811B2, “Potassium channel inhibitors” (ACESION PHARMA APS, priority 2021, dated 2024).

Biological target: T1, human SK3 channel (hKCa2.3) (Homo sapiens, UniProt Q9UGI6)
T1 construct: expressed in transfected cells
Assay: Automated patch clamping (QPatch 16 HT whole-cell recordings)
Assay type: cell-based
Conditions: HEK-293 cells stably expressing hKCa2.3; currents measured at −80 mV; normalized to N-methyl bicuculline; read-out: IC50 in the Automated patch clamping assay (SK3 channel inhibition)
Experimental: Automated whole cell patch-clamp recordings were performed using a QPatch 16 HT system and single-hole Qplates (Sophion, Denmark) on HEK-293 cells stably expressing the human SK3 channel (hKCa2.3). Cells were cultured and prepared for experiments using normal cell culturing procedures. A total of 4-5 million cells were used per experiment. The Qpatch automatically generates giga sealing, whole-cell formation, compound application and recording of current. hKCa2.3 currents were recorded in symmetrical K^+ solutions. The intracellular/pipette solution contained 154 mM KCl, 10 mM HEPES and 10 mM EGTA. CaCl2 is added to give calculated free concentrations of Ca^2+ of 0.4 μM and MgCl2 is added to give a free concentration of 1 mM. In order to maintain a total [K^+] of 156 mM (corresponding to the concentration in the extracellular ringer) a fixed amount of KOH (15 mM) is added, thereafter pH is adjusted with HCl to pH=7.2. Expected osmolarity: 275 mOsm. Sucrose was added to a final osmolarity around 295 mosm. The extracellular solution consisted of (in mM): CaCl2 0.1, MgCl2 3, KCl 150, HEPES 10 and glucose 10, pH=7.4 adjusted with KOH. Osmolarity between 285-295 mosm. The cells were held at 0 mV and hKCa2.3 currents were elicited by a linear voltage ramp from −80 mV to +80 mV (200 ms in duration) applied every 5th second.
The compound application protocol consisted of 12 recording periods lasting 200 s: 1) Baseline recordings in extracellular solution; 2) Application of the positive control N-methyl bicuculline (100 μM), which is characterized by full efficacy, fast on- and off-rate; 3-4) Wash-out; 5-10) Increasing concentrations of test compound to establish an IC50 value; 11-12) Wash-out; 13) positive control with compound NS8593 (N-[(1R)-1,2,3,4-tetrahydro-1-naphthalenyl]-1H-benzimidazol-2-amine) (1 μM) or with N-methyl bicuculline (100 μM). Data were sampled at 10 kHz, 4th order Bessel filter, cut-off frequency 3 kHz. Currents were compensated for run-down. Potency was quantified as the concentration needed to inhibit half of the SK channel activity and reported as an IC50 value.
All effects of compounds of the present invention as tested were normalized to the observed inhibitory effect of N-methyl bicuculline. Currents were measured at −80 mV.

`Cc1nc(NCc2cccc3[nH]c(NC(C)(CO)c4ccc(F)c(Cl)c4)nc23)no1` (centres unmarked) [Example 15, 2-(3-chloro-4-fluorophenyl)-2-[(4-{[(5-methyl-1,2,4-oxadiazol-3-yl)amino]methyl}-1H-1,3-benzodiazol-2-yl)amino]propan-1-ol] and `Cc1noc(NCc2cccc3[nH]c(NC(C)(CO)c4ccc(F)c(Cl)c4)nc23)n1` (centres unmarked) [Example 17, 2-(3-chloro-4-fluorophenyl)-2-[(4-{[(3-methyl-1,2,4-oxadiazol-5-yl)amino]methyl}-1H-1,3-benzodiazol-2-yl)amino]propan-1-ol] cannot be ordered by IC50: less than 30 µM for the first, less than 30 µM for the second.

`CC(CO)(Nc1nc2c(Cn3ccoc3=N)cccc2[nH]1)c1ccc(F)c(Cl)c1` (centres unmarked) [Example 8, 2-(3-chloro-4-fluorophenyl)-2-({4-[(2-imino-2,3-dihydro-1,3-oxazol-3-yl)methyl]-1H-1,3-benzodiazol-2-yl}amino)propan-1-ol] and `CC(CO)(Nc1nc2c(Cn3ccoc3=N)cccc2[nH]1)c1ccc(Cl)c(Cl)c1` (single isomer, unassigned; (+)) [Example 19b, (+)-2-(3,4-dichlorophenyl)-2-({4-[(2-imino-2,3-dihydro-1,3-oxazol-3-yl)methyl]-1H-1,3-benzodiazol-2-yl}amino)propan-1-ol] cannot be ordered by IC50: less than 1 µM for the first, less than 30 µM for the second.

`CC(CO)(Nc1nc2c(CNc3ccon3)cccc2[nH]1)c1cc(F)cc(Cl)c1` (single isomer, unassigned; (-)) [Example 46a, (−)-2-(3-chloro-5-fluorophenyl)-2-[(4-{[(1,2-oxazol-3-yl)amino]methyl}-1H-1,3-benzodiazol-2-yl)amino]propan-1-ol] and `CC(CO)(Nc1nc2c(CNc3ccon3)cccc2[nH]1)c1cccc(Cl)c1F` (single isomer, unassigned) [Example 43a] cannot be ordered by IC50: less than 30 µM for the first, less than 30 µM for the second.

`Cc1coc(=N)n1Cc1cccc2[nH]c(NC(C)(CO)c3cccc(Cl)c3)nc12` (centres unmarked) [Example 5, 2-(3-chlorophenyl)-2-({4-[(2-imino-4-methyl-2,3-dihydro-1,3-oxazol-3-yl)methyl]-1H-1,3-benzodiazol-2-yl}amino)propan-1-ol] and `Cc1coc(=N)n1Cc1cccc2[nH]c(NC(C)(CO)c3ccc(F)c(Cl)c3)nc12` (single isomer, unassigned; (-)) [Example 13a, (−)-2-(3-chloro-4-fluorophenyl)-2-({4-[(2-imino-4-methyl-2,3-dihydro-1,3-oxazol-3-yl)methyl]-1H-1,3-benzodiazol-2-yl}amino)propan-1-ol] cannot be ordered by IC50: less than 1 µM for the first, less than 1 µM for the second.

`CC(CO)(Nc1nc2c(Cn3ccoc3=N)cccc2[nH]1)c1cccc(Cl)c1` (single isomer, unassigned; (-)) [Example 3a, (−)-2-(3-chlorophenyl)-2-({4-[(2-imino-2,3-dihydro-1,3-oxazol-3-yl)methyl]-1H-1,3-benzodiazol-2-yl}amino)propan-1-ol] and `COCC(C)(Nc1nc2c(Cn3ccoc3=N)cccc2[nH]1)c1cccc(Cl)c1` (centres unmarked) [Example 6, N-[2-(3-chlorophenyl)-1-methoxypropan-2-yl]-4-[(2-imino-2,3-dihydro-1,3-oxazol-3-yl)methyl]-1H-1,3-benzodiazol-2-amine] cannot be ordered by IC50: less than 1 µM for the first, less than 30 µM for the second.

`Cc1oc(=N)n(Cc2cccc3[nH]c(NC(C)(CO)c4ccc(F)c(Cl)c4)nc23)c1C` (centres unmarked) [Example 20, 2-(3-chloro-4-fluorophenyl)-2-({4-[(2-imino-4,5-dimethyl-2,3-dihydro-1,3-oxazol-3-yl)methyl]-1H-1,3-benzodiazol-2-yl}amino)propan-1-ol] and `Cc1coc(=N)n1Cc1cccc2[nH]c(NC(C)(CO)c3ccc(F)c(Cl)c3)nc12` (centres unmarked) [Example 13, 2-(3-chloro-4-fluorophenyl)-2-({4-[(2-imino-4-methyl-2,3-dihydro-1,3-oxazol-3-yl)methyl]-1H-1,3-benzodiazol-2-yl}amino)propan-1-ol] cannot be ordered by IC50: less than 1 µM for the first, less than 1 µM for the second.

`Cn1ccnc1NCc1cccc2[nH]c(NC(C)(CO)c3cccc(C(F)(F)F)c3)nc12` (centres unmarked) [Example 22, 2-((4-(((1-methyl-1H-imidazol-2-yl)amino)methyl)-1H-benzo[d]imidazol-2-yl)amino)-2-(3-(trifluoromethyl)phenyl)propan-1-ol] and `Cc1oc(=N)n(Cc2cccc3[nH]c(NC(C)(CO)c4cccc(C(F)(F)F)c4)nc23)c1C` (centres unmarked) [Example 28, 2-({4-[(2-imino-4,5-dimethyl-2,3-dihydro-1,3-oxazol-3-yl)methyl]-1H-1,3-benzodiazol-2-yl}amino)-2-[3-(trifluoromethyl)phenyl]-propan-1-ol] cannot be ordered by IC50: less than 30 µM for the first, less than 30 µM for the second.

`CC(CO)(Nc1nc2c(Cn3ccoc3=N)cccc2[nH]1)c1cc(Cl)ccc1F` (single isomer, unassigned) [Example 47a] and `CC(CO)(Nc1nc2c(Cn3ccoc3=N)cccc2[nH]1)c1cccc(Cl)c1F` (single isomer, unassigned; (-)) [Example 41a, (−)-2-(3-chloro-2-fluorophenyl)-2-({4-[(2-imino-2,3-dihydro-1,3-oxazol-3-yl)methyl]-1H-1,3-benzodiazol-2-yl}amino)propan-1-ol] cannot be ordered by IC50: less than 1 µM for the first, less than 1 µM for the second.

`Cc1cn(Cc2cccc3[nH]c(NC(C)(CO)c4cccc(OC(F)(F)F)c4)nc23)c(=N)o1` (centres unmarked) [Example 30, 2-({4-[(2-imino-5-methyl-2,3-dihydro-1,3-oxazol-3-yl)methyl]-1H-1,3-benzodiazol-2-yl}amino)-2-[3-(trifluoromethoxy)phenyl]-propan-1-ol] and `CC(CO)(Nc1nc2c(Cn3ccoc3=N)cccc2[nH]1)c1cccc(Cl)c1F` (single isomer, unassigned; (+)) [Example 41b, (+)-2-(3-chloro-2-fluorophenyl)-2-({4-[(2-imino-2,3-dihydro-1,3-oxazol-3-yl)methyl]-1H-1,3-benzodiazol-2-yl}amino)propan-1-ol] cannot be ordered by IC50: less than 1 µM for the first, less than 30 µM for the second.

`CC(CO)(Nc1nc2c(Cn3ccoc3=N)cccc2[nH]1)c1cc(Cl)ccc1F` (single isomer, unassigned; (+)) [Example 47b, (+)-2-(5-chloro-2-fluorophenyl)-2-({4-[(2-imino-2,3-dihydro-1,3-oxazol-3-yl)methyl]-1H-1,3-benzodiazol-2-yl}amino)propan-1-ol] and `CC(CO)(Nc1nc2c(CN3CCSC3=O)cccc2[nH]1)c1ccc(F)c(Cl)c1` (centres unmarked) [Example 36, 3-[(2-{[2-(3-chloro-4-fluorophenyl)-1-hydroxypropan-2-yl]amino}-1H-1,3-benzodiazol-4-yl)methyl]-1,3-thiazolidin-2-one] cannot be ordered by IC50: less than 30 µM for the first, less than 30 µM for the second.

`CC(Nc1ncco1)c1cccc2[nH]c(NC(C)(CO)c3ccc(F)c(Cl)c3)nc12` (centres unmarked) [Example 31, 2-(3-chloro-4-fluorophenyl)-2-[(4-{1-[(1,3-oxazol-2-yl)amino]ethyl}-1H-1,3-benzodiazol-2-yl)amino]propan-1-ol] and `Cc1nnc(NCc2cccc3[nH]c(NC(C)(CO)c4ccc(F)c(Cl)c4)nc23)o1` (centres unmarked) [Example 16, 2-(3-chloro-4-fluorophenyl)-2-((4-(((5-methyl-1,3,4-oxadiazol-2-yl)amino)methyl)-1H-benzo[d]imidazol-2-yl)amino) propan-1-ol] cannot be ordered by IC50: less than 30 µM for the first, less than 30 µM for the second.

`CC(CO)(Nc1nc2c(CN3CCNC3=O)cccc2[nH]1)c1ccc(F)c(Cl)c1` (centres unmarked) [Example 34, 1-[(2-{[2-(3-chloro-4-fluorophenyl)-1-hydroxypropan-2-yl]amino}-1H-1,3-benzodiazol-4-yl)methyl]imidazolidin-2-one] showed an IC50 of less than 30 µM.
